The test system of this test is C. parvum. Briefly: Asexual growth vs DMC1 sexual differentiation assay. It counts as cell-based, Cryptosporidium parvum. On the procedure: The effect on expression of the meiotic recombination protein DMC1 was previously identified as a sexual stage-specific marker for C. parvum. The potency of Compound 11 for inhibiting asexual development during the first 48 h of infection was compared to its potency at inhibiting DMC1 expression when compound was added after 48 h of culture (the approximate timing of sexual differentiation). In addition to staining for parasites with FITC-Vicia villosa lectin and DNA with Hoechst as above, samples were stained for the presence of DMC1 with an anti-C. parvum DMC1 mouse monoclonal antibody (clone 1H10G7 (IgG2b, kappa) used as undiluted culture medium with a secondary Alexa Fluor 568 goat anti-mouse IgG antibody (Invitrogen) at 1:500 dilution. Cultures were performed in 384-well plates with the addition of amphotericin B (Sigma, catalog) to the culture medium at 0.1 to 0.5 μg·mL^−1 for these assays. Images were acquired as above, and analyzed using NIH ImageJ software.

Structures are written as SMILES.

For the compound `COc1ccc(NC(=O)N2CCCCN3[C@H](CN(C)C)[C@H](c4ccc(C#Cc5ccccc5)cc4)[C@@H]3C2)cc1` [Compound 11, (8R,9S,10S)-10-((dimethylamino)methyl)-N-(4-methoxyphenyl)-9-(4-(phenylethynyl)phenyl)-1,6-diazabicyclo[6.2.0]decane-6-carboxamide], the “potency on asexual growth (0-48 h) vs DMC1 expression (48-72 h)” value is recorded as “approximately equipotent”.
